# Assay results taken from PubChem BioAssay AID1918948 (Molecular Pharmacology Branch, DTP, NCI, 2023).
# “And” between values parts separate entries of the source, which are not always exact repeats. Equal entries are not always repeated.
# Tested on: K-562 leukemia growth, % test/control
# Assay: Anticancer human tumor K-562 cell line growth inhibition;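 note: spheroids exposed to compounds for 7 days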;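 for viability, T/C: 100% = DMSO vehicle wells and lower values mean fewer viable cells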
# Conditions: spheroids with HUVEC and MSC; for viability, T/C: stronger effect = lower value
# Outline: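 Multicellular complex spheroids of tumor cells with human endothelial cells (HUVEC) and mesenchymal stem cells; the LSD1 inhibitor iadademstat was combined with standard-of-care or investigational agents. Top concentration at or near clinical Cmax, half-log dilutions; final DMSO ≤0.25%.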
# [1] = curve of first compound, second compound 0.1 µM
# [2] = curve of first compound, second compound 0.316 µM
# [3] = curve of first compound, second compound 1 µM
# [4] = curve of first compound, second compound 3.16 µM
# [5] = curve of first compound, second compound 10 µM
# [6] = second compound 0.1 µM, first compound 0.00949 µM
# [7] = second compound 0.1 µM, first compound 0.03 µM
# [8] = second compound 0.1 µM, first compound 0.0949 µM
# [9] = second compound 0.1 µM, first compound 0.3 µM
# [10] = second compound 0.316 µM, first compound 0.00949 µM
# [11] = second compound 0.316 µM, first compound 0.03 µM
# [12] = second compound 0.316 µM, first compound 0.0949 µM
# [13] = second compound 0.316 µM, first compound 0.3 µM
# [14] = second compound 1 µM, first compound 0.00949 µM
# [15] = second compound 1 µM, first compound 0.03 µM
# [16] = second compound 1 µM, first compound 0.0949 µM
# [17] = second compound 1 µM, first compound 0.3 µM
# [18] = second compound 3.16 µM, first compound 0.00949 µM
# [19] = second compound 3.16 µM, first compound 0.03 µM
# [20] = second compound 3.16 µM, first compound 0.0949 µM
# [21] = second compound 3.16 µM, first compound 0.3 µM
# [22] = second compound 10 µM, first compound 0.00949 µM
# [23] = second compound 10 µM, first compound 0.03 µM
# [24] = second compound 10 µM, first compound 0.0949 µM
# [25] = second compound 10 µM, first compound 0.3 µM
smiles,measurement,setting,value
O=C(C=Cn1cnc(-c2cc(C(F)(F)F)cc(C(F)(F)F)c2)n1)NNc1cnccn1 + NC1CC1c1ccc(-c2cccc(O)c2)cc1,IC50,[1],115 nM
same,IC50,[2],76.5 nM
same,IC50,[3],67.6 nM
same,IC50,[4],66.7 nM
same,IC50,[5],50.2 nM
same,"viability, T/C","second compound 0.1 µM, first compound 0.00316 µM",106%
same,"viability, T/C","second compound 0.1 µM, first compound 0.01 µM",103%
same,"viability, T/C","second compound 0.1 µM, first compound 0.0316 µM",93.5%
same,"viability, T/C","second compound 0.1 µM, first compound 0.1 µM",56.2%
same,"viability, T/C","second compound 0.1 µM, first compound 0.316 µM",9.94%
same,"viability, T/C","second compound 0.1 µM, first compound 1 µM",1.19%
same,"viability, T/C","second compound 0.316 µM, first compound 0.00316 µM",106%
same,"viability, T/C","second compound 0.316 µM, first compound 0.01 µM",103%
same,"viability, T/C","second compound 0.316 µM, first compound 0.0316 µM",83.1%
same,"viability, T/C","second compound 0.316 µM, first compound 0.1 µM",40.1%
same,"viability, T/C","second compound 0.316 µM, first compound 0.316 µM",9.06%
same,"viability, T/C","second compound 0.316 µM, first compound 1 µM",1.23%
same,"viability, T/C","second compound 1 µM, first compound 0.00316 µM",102%
same,"viability, T/C","second compound 1 µM, first compound 0.01 µM",96.4%
same,"viability, T/C","second compound 1 µM, first compound 0.0316 µM",80.7%
same,"viability, T/C","second compound 1 µM, first compound 0.1 µM",34%
same,"viability, T/C","second compound 1 µM, first compound 0.316 µM",8.67%
same,"viability, T/C","second compound 1 µM, first compound 1 µM",1.78%
same,"viability, T/C","second compound 3.16 µM, first compound 0.00316 µM",97%
same,"viability, T/C","second compound 3.16 µM, first compound 0.01 µM",94.9%
same,"viability, T/C","second compound 3.16 µM, first compound 0.0316 µM",73.4%
same,"viability, T/C","second compound 3.16 µM, first compound 0.1 µM",37.6%
same,"viability, T/C","second compound 3.16 µM, first compound 0.316 µM",8.04%
same,"viability, T/C","second compound 3.16 µM, first compound 1 µM",1.27%
same,"viability, T/C","second compound 10 µM, first compound 0.00316 µM",91.4%
same,"viability, T/C","second compound 10 µM, first compound 0.01 µM",91.3%
same,"viability, T/C","second compound 10 µM, first compound 0.0316 µM",59.8%
same,"viability, T/C","second compound 10 µM, first compound 0.1 µM",32.7%
same,"viability, T/C","second compound 10 µM, first compound 0.316 µM",6.57%
same,"viability, T/C","second compound 10 µM, first compound 1 µM",2.98%
CCc1c2c(nc3ccc(O)cc13)-c1cc3c(c(=O)n1C2)COC(=O)[C@]3(O)CC + NC1CCC(NC2CC2c2ccccc2)CC1,IC50,[1],< 0.949 nM
same,IC50,[2],< 0.949 nM
same,IC50,[3],< 0.949 nM
same,IC50,[4],< 0.949 nM
same,IC50,[5],< 0.949 nM
same,"viability, T/C","second compound 0.1 µM, first compound 0.000949 µM",5.18%
same,"viability, T/C","second compound 0.1 µM, first compound 0.003 µM",3.15%
same,"viability, T/C",[6],1.66%
same,"viability, T/C",[7],1.09%
same,"viability, T/C",[8],0.45%
same,"viability, T/C",[9],0.5%
same,"viability, T/C","second compound 0.316 µM, first compound 0.000949 µM",5.49%
same,"viability, T/C","second compound 0.316 µM, first compound 0.003 µM",3.06%
same,"viability, T/C",[10],1.72%
same,"viability, T/C",[11],2.09%
same,"viability, T/C",[12],0.56%
same,"viability, T/C",[13],0.51%
same,"viability, T/C","second compound 1 µM, first compound 0.000949 µM",5.31%
same,"viability, T/C","second compound 1 µM, first compound 0.003 µM",3.05%
same,"viability, T/C",[14],1.8%
same,"viability, T/C",[15],1.24%
same,"viability, T/C",[16],1.88%
same,"viability, T/C",[17],0.5%
same,"viability, T/C","second compound 3.16 µM, first compound 0.000949 µM",5.35%
same,"viability, T/C","second compound 3.16 µM, first compound 0.003 µM",3.03%
same,"viability, T/C",[18],1.7%
same,"viability, T/C",[19],1.4%
same,"viability, T/C",[20],0.45%
same,"viability, T/C",[21],0.47%
same,"viability, T/C","second compound 10 µM, first compound 0.000949 µM",4.28%
same,"viability, T/C","second compound 10 µM, first compound 0.003 µM",2.29%
same,"viability, T/C",[22],1.7%
same,"viability, T/C",[23],1.31%
same,"viability, T/C",[24],0.58%
same,"viability, T/C",[25],2.36%
CCN(c1cc(-c2ccc(CN3CCOCC3)cc2)cc(C(=O)NCc2c(C)cc(C)[nH]c2=O)c1C)C1CCOCC1,"viability, T/C",compound 0.00949 µM,110% and 112%
same,"viability, T/C",compound 0.03 µM,107% and 112%
same,"viability, T/C",compound 0.0949 µM,105% and 114%
same,"viability, T/C",compound 0.3 µM,105%
same,"viability, T/C",compound 0.949 µM,107% and 76.7%
same,"viability, T/C",compound 3 µM,104% and 38.9%
same,IC50,curve of compound,> 3000 nM and 2140 nM
O=C(C=Cc1cccc(S(=O)(=O)Nc2ccccc2)c1)NO + NC1CCC(NC2CC2c2ccccc2)CC1,IC50,[1],417 nM
same,IC50,[2],421 nM
same,IC50,[3],430 nM
same,IC50,[4],325 nM
same,IC50,[5],136 nM
same,"viability, T/C",[6],103%
same,"viability, T/C",[7],105%
same,"viability, T/C",[8],106%
same,"viability, T/C",[9],69.5%
same,"viability, T/C","second compound 0.1 µM, first compound 0.949 µM",1.52%
same,"viability, T/C","second compound 0.1 µM, first compound 3 µM",0.12%
same,"viability, T/C",[10],106%
same,"viability, T/C",[11],107%
same,"viability, T/C",[12],108%
same,"viability, T/C",[13],70.2%
same,"viability, T/C","second compound 0.316 µM, first compound 0.949 µM",1.56%
same,"viability, T/C","second compound 0.316 µM, first compound 3 µM",0.11%
same,"viability, T/C",[14],106%
same,"viability, T/C",[15],107%
same,"viability, T/C",[16],105%
same,"viability, T/C",[17],72%
same,"viability, T/C","second compound 1 µM, first compound 0.949 µM",1.58%
same,"viability, T/C","second compound 1 µM, first compound 3 µM",0.93%
same,"viability, T/C",[18],101%
same,"viability, T/C",[19],99.8%
same,"viability, T/C",[20],97.4%
same,"viability, T/C",[21],53.7%
same,"viability, T/C","second compound 3.16 µM, first compound 0.949 µM",1.85%
same,"viability, T/C","second compound 3.16 µM, first compound 3 µM",0.87%
same,"viability, T/C",[22],65.4%
same,"viability, T/C",[23],59.1%
same,"viability, T/C",[24],61.2%
same,"viability, T/C",[25],25.9%
same,"viability, T/C","second compound 10 µM, first compound 0.949 µM",1.37%
same,"viability, T/C","second compound 10 µM, first compound 3 µM",0.45%
